Where two headings read alike, the source gives them in different places.
B1: γ-IFN: rat recombinant γ-interferon, 100 U/ml, used to increase MHC class I and class II expression in FRTL-5 cells (protein, UniProt P01581 23-156, looked up)
Interferon gamma: QGTLIESLESLKNYFNSSSMDAMEGKSLLLDIWRNWQKDGNTKILESQIISFYLRLFEVLKDNQAISNNISVIESHLITNFFSNSKAKKDAFMSIAKFEVNNPQIQHKAVNELIRVIHQLSPESSLRKRKRSRC

How the values were obtained:
MHC class II RNA = assay: Northern analysis of MHC class II RNA levels in FRTL-5 cells; assay type: cell-based, rat; conditions: 100 U/ml γ-interferon, 6H medium, 40 hours
thyroglobulin RNA = assay: Northern analysis of thyroglobulin RNA levels in FRTL-5 cells; assay type: cell-based, rat; conditions: for % increase in TG RNA expression: 1 mM, 6H medium, 40 hours; for increase of TG RNA levels compared with MMI: Table 17, 1 mM
[1] = test system: swine class I promoter (PD1); assay: Luciferase assay, FRTL-5 cells stably transfected with class I promoter-luciferase chimeras; assay type: cell-based; conditions: for inhibition at 10 µM / inhibition at 100 µM / inhibition at 1000 µM / inhibition at 25 µM: Sus scrofa
Excerpt: The swine PD1 5′-flanking sequence-CAT chimeras (−1100, −203, and −127), as well as two mutants with the CRE site with −107 to −100 bp deleted (−203ΔCRE and −127ΔCRE) were used to create luciferase reporter gene constructs. The inserts were released by restriction enzyme digestion, purified from agarose gel using QIAEX (QIAGEN, Chatsworth, Calif.) and ligated in the NheI-HindIII site of the PGL-2 basic vector (PROMEGA, Madison, Wis.) using a DNA ligation kit from TAKARA biomedicals (TAKARA SHUZO Co). JM109 bacterial competent cells (PROMEGA, Madison, Wis.) were transformed with the ligation reaction and plated in agar plates for 12 h at 37° C. The colonies were picked and screened with minipreps using QIAprep spin plasmid kit (QIAGEN, Chatsworth, Calif.) and restriction enzyme digestion. The plasmids were then purified by CsCl gradient centrifugation.
The PD1-PGL-2 basic constructs and the Class II-PGL-2 basic constructs were stably transfected in the FRTL-5 cells using a Lipofectamine (GIBCO, Life Technologies, Inc.) method. Near confluent cells in 6H medium were cotransfected with 20 μg of plasmid DNA and 2 μg of a pcDNA3neo or a pPUR selection vector (CLONTECH, Palo Alto, Calif.). After 24-48 hours, 400 μg/ml of G418 (GIBCO, Life Technologies, Inc.) or 10 μM of puromycin (SIGMA) were added to the medium. After 3 weeks the antibiotic-resistant colonies were cloned by limiting dilution and screened to determine their interferon sensitivity. At least 5 cell lines of each construct were isolated, each of whose activity was increased by adding 100 U/ml γ interferon to the medium of the cells. The following data (Tables 10-13) were obtained with one clone of each of the class I or class II-luciferase chimera, but were representative of at least three other clones of each.
Luciferase activity was measured using the Luciferase assay system (PROMEGA, Madison, Wis.). Briefly, treated or untreated cells from a 100 mm culture dish were washed with PBS, scraped and collected in microfuge tubes. The pellet was dissolved in 100 μl 1× reporter lysis buffer and incubated at room temperature for 15 minutes. Cells were frozen in dry ice plus ethanol and thawed in water at room temperature. After vortexing for 10 sec, tubes were centrifuged at 12,000×g for 5 min. Twenty μl of the supernatant were mixed with 100 μl of Luciferase assay reagent and immediately placed in a luminometer. Light was measured for a period of 10 sec after a 2 sec delay.
Treatment of cells, maintained either in the presence of TSH or its absence, with 100 U/ml interferon, increased class I and class II promoter activity (Table 10). In this experiment FRTL-5 cells were grown to 80% confluency in 6H medium with TSH then treated with 100 U/ml γ-interferon, 5 mM MMI or both together. Luciferase activity was measured after 40 hours as described. Several points are notable. First, interferon increases both class I and class II promoter activity in the stable transfectants. Second, MMI inhibits both interferon-increased class I and interferon-increased class II promoter activity.

(NZB x NZW)F1 mice = assay: Prevention of proteinuria (SLE model) in female (NZB x NZW)F1 mice; assay type: in vivo; conditions: oral; for Animals with proteinuria, 30-500 (mg/dl proteinuria) / Animals with proteinuria, >500 (mg/dl proteinuria) / Animals with proteinuria, Neg-Trace (mg/dl proteinuria): 0.05% MMI, 0.01% 5-phenylmethimazole, 0.05% 2-mercaptoimidazole
Excerpt: Female (NZB x NZW)F1 mice were obtained from Jackson Labs. Animals were followed with AMES 2855 Uristix (Miles) to semiquantitatively measure proteinuria. Proteinuria was taken as a measure of development of SLE and MMI suppression of proteinuria as suppression of renal complexes in kidney (Mozes et al., J. Clin Immunology 18:106-113 (1998)). At 7-8 mos. mice develop proteinuria reflecting renal disease. Treatment was from 2 mos to 6 mos of age. Treatment was oral. Each group had 8 animals to start.
In this experiment, immunohistology was performed in a blind fashion on 5 μm thick frozen kidney sections which were fixed and stained with FITC-conjugated goat antibodies to immunoglobulin G (γ chain specific) as described (Mozes, et al., Science 261:91-93 (1993); Mozes, E., et al., ibid (1998)). Compound 10, a tautomeric cyclic thione, and MMI are effective in preventing SLE in this experimental model.
Death of some animals in this experiment occurred for technical reasons, i.e. flooding of cages, handling, etc., in the last 2 mos. However, losses in the control group were similar to experimental groups. MMI, 2-mercaptoimidazole, and Compound 10 treatments were administered during the period between 2 and 6.25 months of age.

NOD mice = assay: Prevention of glucosuria and diabetes in female NOD mice; assay type: in vivo, mouse; conditions: 5-phenylmethimazole at a fifth the MMI concentration
Excerpt: Female NOD mice were also obtained from Jackson Labs, along with control mice from which the strain was developed (Makino et al., Exp. Anim. 29:1-13 (1980); Wicker, L. S., et al., Diabetes 35:855-860 (1986)). Animals showing urine Tes-Tape positivity greater than 1 + were considered positive and to have diabetes (Wicker, L. S., et al., ibid (1986)). At 8-16 weeks, […] of NOD mice develop glucosuria and diabetes according to the literature (Wicker, L. S., et al., ibid (1986)).
Table 20 presents results of the ability of Female NOD mice (5 animals were in each group) to develop glucosuria and diabetes when treated with MMI and compound 10 (5-phenylmethimazole) at a fifth the MMI concentration, by comparison to no treatment or treatment with 2-mercaptoimidazole. Mice were from Jackson Labs in this experiment. Animals showing urine Tes-Tape positivity greater than 1+ were considered positive and to have diabetes.
Compound 10 and MMI are therefore effective in preventing diabetes in the NOD mouse example of diabetes.

[2] = FRTL-5, read-out: % inhibition of IFN-increased p(−203)LUC class I promoter activity
[3] = FRTL-5, read-out: % inhibition of basal p(−203)LUC class I promoter activity
[4] = FRTL-5, 10 μM, 100 U/ml γ-interferon, 6H medium, 40 hours, read-out: % inhibition of IFN-increased p(−203)LUC class I promoter activity
[5] = FRTL-5, 25 μM, 6H medium, 40 hours, read-out: % inhibition of basal p(−203)LUC class I promoter activity
[6] = FRTL-5, 100 μM, 6H medium, 40 hours, read-out: % inhibition of basal p(−203)LUC class I promoter activity
[7] = FRTL-5, 100 μM, 100 U/ml γ-interferon, 6H medium, 40 hours, read-out: % inhibition of IFN-increased p(−203)LUC class I promoter activity
[8] = FRTL-5, 1.0 mM, 6H medium, 40 hours, read-out: % inhibition of basal p(−203)LUC class I promoter activity
[9] = FRTL-5, 1.0 mM, 100 U/ml γ-interferon, 6H medium, 40 hours, read-out: % inhibition of IFN-increased p(−203)LUC class I promoter activity

Molecule | % inhibition of class II RNA expression (MHC class II RNA; 100 μM) | % inhibition of class II RNA expression (MHC class II RNA; 1 mM) | inhibition at 10 µM [1, 4] | inhibition at 25 µM [1, 5] | inhibition at 100 µM [1, 6] | inhibition at 100 µM [1, 7] | inhibition at 1000 µM [1, 8] | inhibition at 1000 µM [1, 9] | further results
Cn1ccn(C)c1=S [Compound 8, N-Methylmethimazole] | 32 ± 5% | 59 ± 12% | – | – | – | – | – | – | % increase in TG RNA expression (thyroglobulin RNA): 129 ± 7%; increase of TG RNA levels compared with MMI (thyroglobulin RNA): no comparable increase; % inhibition of IFN-increased p(−203)LUC class I promoter activity ([1]; 10 μM, 100 U/ml γ-interferon, 6H medium, 40 hours): 0%; % inhibition of basal p(−203)LUC class I promoter activity ([1]; 25 μM, 6H medium, 40 hours): 9 ± 6%; % inhibition of basal p(−203)LUC class I promoter activity ([1]; 100 μM, 6H medium, 40 hours): 44 ± 10%; % inhibition of IFN-increased p(−203)LUC class I promoter activity ([1]; 100 μM, 100 U/ml γ-interferon, 6H medium, 40 hours): 42 ± 14%; % inhibition of basal p(−203)LUC class I promoter activity ([1]; 1.0 mM, 6H medium, 40 hours): 51 ± 7%; % inhibition of IFN-increased p(−203)LUC class I promoter activity ([1]; 1.0 mM, 100 U/ml γ-interferon, 6H medium, 40 hours): 77 ± 10%
Sc1nc2ccccc2[nH]1 [Compound 4, 2-Mercaptobenzimidazole] | – | – | – | – | – | – | – | – | inhibition at 10 µM [1, 2]: 0%; inhibition at 100 µM [1, 2]: 0%; inhibition at 1000 µM [1, 2]: 39 ± 6%; inhibition at 25 µM [1, 3]: 0%; inhibition at 100 µM [1, 3]: 0%; inhibition at 1000 µM [1, 3]: 50 ± 5%
CSc1nccn1C [Compound 7, S-Methylmethimazole] | 22 ± 17% | 62 ± 14% | 0% | 0% | 10 ± 6% | 24 ± 6% | 44 ± 4% | 62 ± 9% | % increase in TG RNA expression (thyroglobulin RNA): 122 ± 14%; increase of TG RNA levels compared with MMI (thyroglobulin RNA): no comparable increase
Cc1ncc([N+](=O)[O-])n1CCO [Compound 2, 2-Methyl-5-nitro-1-imidazole ethanol] | 11 ± 10% | 45 ± 13% | 0% | 0% | 0% | 10 ± 6% | 42 ± 6% | 57 ± 5% | –
Cc1cnc(S)n1C [Compound 9, 5-Methylmethimazole] | – | – | 0% | 0% | 0% | 0% | 10 ± 10% | 15 ± 11% | –
Sc1ncc[nH]1 [Compound 3, 2-Mercaptoimidazole] | – | – | – | 0% | 0% | – | 0% | – | Animals with proteinuria, 30-500 (mg/dl proteinuria) ((NZB x NZW)F1 mice; 6 mos): 4 of 7; Animals with proteinuria, >500 (mg/dl proteinuria) ((NZB x NZW)F1 mice; 6 mos): 0 of 7; Animals with proteinuria, Neg-Trace (mg/dl proteinuria) ((NZB x NZW)F1 mice; 6 mos): 3 of 7; Animals with proteinuria, 30-500 (mg/dl proteinuria) ((NZB x NZW)F1 mice; 7.5 mos): 3 of 6; Animals with proteinuria, >500 (mg/dl proteinuria) ((NZB x NZW)F1 mice; 7.5 mos): 3 of 6; Animals with proteinuria, Neg-Trace (mg/dl proteinuria) ((NZB x NZW)F1 mice; 7.5 mos): 0 of 6; development of proteinuria at 7.5 mos ((NZB x NZW)F1 mice; compound 10 at a fifth the MMI concentration): developed significant proteinuria; development of glucosuria and diabetes by 12 weeks (NOD mice): developed diabetes
O=[N+]([O-])c1ccc2[nH]c(S)nc2c1 [Compound 5, 2-Mercapto-5-nitrobenzimidazole] | – | – | 0% | 0% | 0% | 0% | 0% | 9 ± 7% | –
Cc1ccc2[nH]c(S)nc2c1 [Compound 6, 2-Mercapto-5-methylbenzimidazole] | – | – | – | 0% | 0% | – | 0% | 19 ± 10% | –
B1 | – | – | – | – | – | – | – | – | Luciferase activity +γ-IFN ([1]; Vector-LUC Control, 100 U/ml γ-interferon, 40 hours): 102 ± 6 % Control; Luciferase activity +γ-IFN ([1]; p(−127) class I-LUC, 100 U/ml γ-interferon, 40 hours): 180 ± 19 % Control; Luciferase activity +γ-IFN ([1]; p(−127ΔCRE) class I-LUC, 100 U/ml γ-interferon, 40 hours): 92 ± 10 % Control; Luciferase activity +γ-IFN ([1]; p(−203) class I-LUC, 100 U/ml γ-interferon, 40 hours): 495 ± 30 % Control; Luciferase activity +γ-IFN ([1]; p(−203ΔCRE) class I-LUC, 100 U/ml γ-interferon, 40 hours): 139 ± 16 % Control

— patent US6365616B1, “Methimazole derivatives and tautomeric cyclic thiones to treat autoimmune diseases” (Sentron Medical, Inc., priority 1998, dated 2002)
